According to ChEMBL document CHEMBL4024702, “Covalent Modifiers: A Chemical Perspective on the Reactivity of α,β-Unsaturated Carbonyls with Thiols via Hetero-Michael Addition Reactions” (J Med Chem, 2017):
pEC50, pIC50, pKd: −log10 of the molar value.

Experiments:
[1] = Thiol reactivity of the compound in DMSO/PBS buffer assessed as adduct formation by measuring half life of parent compound by 1H NMR analysis; type: physicochemical
[2] = Cysteamine reactivity of the compound in TRIS-HCL assessed as second order rate constant at 40 uM and pH 7.4
[3] = Thiol reactivity of the compound in PBS/DMSO buffer assessed as pseudo-first order rate constant for adduct formation
Tetrahymena pyriformis = assay: Toxicity in Tetrahymena pyriformis assessed as growth inhibition after 48 hrs
[4] = Glutathione reactivity of the compound in DMSO and phosphate buffer assessed as second order rate constant for adduct formation
A549 = assay: Cytotoxicity against human A549 cells assessed as reduction in cell viability after 96 hrs by SRB asssay; type: functional, cell-based; details: A549, 96 h
MCF7 = assay: Cytotoxicity against human MCF7 cells assessed as reduction in cell viability after 96 hrs by SRB asssay; type: functional, cell-based; details: MCF7, 96 h
HT-29 = assay: Cytotoxicity against human HT-29 cells assessed as reduction in cell viability after 96 hrs by SRB asssay; type: functional, cell-based; details: HT-29, 96 h
A-431 = assay: Cytotoxicity against human A431 cells assessed as reduction in cell viability after 96 hrs by SRB asssay; type: functional, cell-based; details: A-431, 96 h
518A2 = assay: Cytotoxicity against human 518A2 cells assessed as reduction in cell viability after 96 hrs by SRB asssay; type: functional, cell-based; details: 518A2, 96 h
[5] = Thiol reactivity of the compound in PBS buffer assessed as pseudo-first order rate constant for adduct formation in presence of 4-nitrobenzenethiol at pH 7.4 by stop-flow spectrophotometric analysis
[6] = Glutathione reactivity of the compound in PBS buffer assessed as rate constant for 1,4-adduct formation at pH 7.4
[7] = Thiol reactivity of the compound in PBS buffer assessed as adduct formation at 100 to 200 uM at pH 7.4 by UV-visible spectroscopic analysis
[8] = Cysteine reactivity of the compound assessed as second order rate constant by 1H NMR analysis
[9] = Cytotoxicity against human H1HeLa cells after 2 days by XTT/PMS dye based assay; type: cell-based, H1-HeLa
rhinovirus B14 [10] = assay: Irreversible inhibition of human rhinovirus serotype 14 3C protease assessed as ratio of Kobs/I by spectrofluorimetric analysis
rhinovirus B14 [11] = assay: Antiviral activity against rhinovirus serotype 14 infected in human H1HeLa cells after 2 days by XTT/PMS dye based assay; type: functional, cell-based; details: Rhinovirus B, H1-HeLa, 48 h
[12] = DTT reactivity of the compound in acetonitrile to tris-HCL buffer at pH 7.4 by NMR spectroscopic analysis
[13] = Glutathione reactivity of the compound in acetonitrile to tris-HCL buffer at pH 7.4 by NMR spectroscopic analysis
[14] = Cysteamine reactivity of the compound in TRIS-HCL assessed as second order rate constant at 40 uM and pH 7.4 by stopped-flow assay
Papain (Carica papaya) = molecular target: T1, Papain (Carica papaya) (UniProt P00784); assay: Irreversible inhibition of Carica papaya papain assessed as ratio of Kinact to Ki
T1 sequence (whole entry): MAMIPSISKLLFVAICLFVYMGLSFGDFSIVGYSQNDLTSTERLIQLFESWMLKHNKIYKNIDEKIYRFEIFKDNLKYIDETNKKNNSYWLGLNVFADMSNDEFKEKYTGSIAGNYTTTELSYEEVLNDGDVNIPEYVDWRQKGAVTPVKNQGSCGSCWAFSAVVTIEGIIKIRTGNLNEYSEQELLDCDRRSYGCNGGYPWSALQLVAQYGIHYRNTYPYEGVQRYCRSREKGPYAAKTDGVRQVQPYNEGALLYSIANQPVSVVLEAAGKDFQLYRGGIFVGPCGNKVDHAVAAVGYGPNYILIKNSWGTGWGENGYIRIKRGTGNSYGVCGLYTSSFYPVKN

Cc1csc(C(C#N)C(SCCO)c2ccccc2)n1 (centres undefined)
t1/2 [1]: < 1 min

COc1ccc(C(=O)C(c2ccc([N+](=O)[O-])cc2)C(SCCN)c2ccc(OC)c(OC)c2)c(OC)c1 (centres undefined)
K [2]: 0.29 M⁻¹ s⁻¹

COc1ccc(C(=O)NC/C=C/S(C)(=O)=O)cc1
K [3]: 2.8 ×10⁻³ /s

O=C/C=C/c1ccccc1
K [2]: 0.64 M⁻¹ s⁻¹

COc1ccc(C(=O)C(F)C(SCCN)c2ccc(OC)c(OC)c2)c(OC)c1 (centres undefined)
K [2]: 0.017 M⁻¹ s⁻¹

C=C(C)C(=O)OC
pEC50 (Tetrahymena pyriformis): 1.78
K [4]: 0.072 M⁻¹ s⁻¹

N#CC(c1ccncc1)C(SCCO)C1CC1 (centres undefined)
t1/2 [1]: 11.9 min

C=CS(=O)(=O)Nc1ccc(OC)cc1
K [3]: 2.8 ×10⁻² /s

CC1=CC[C@]23O[C@@]2(C)CC[C@@H]2[C@H](OC(=O)[C@H]2CN2CCCCC2)[C@@H]13
pIC50 (A549): 5.32
pIC50 (MCF7): 4.77
pIC50 (HT-29): 5.09
pIC50 (A-431): 4.72
pIC50 (518A2): 4.84

C=CC(=O)Nc1ccccc1
K [3]: 1.6 ×10⁻⁴ /s

Cc1cc(O)c(C)c(Sc2ccc([N+](=O)[O-])cc2)c1O
K [5]: 7.3 ×10⁻¹ /s

COC(=O)/C=C/CNC(=O)c1ccc(OC)cc1
K [3]: 3.7 ×10⁻⁴ /s

C=C1C(=O)O[C@@H]2[C@H]3C(C)=CC[C@@]34O[C@@]4(C)CC[C@@H]12 [ARGLABIN]
pIC50 (A549): 5.66
pIC50 (MCF7): 5.63
pIC50 (HT-29): 5.15
pIC50 (A-431): 5.35
pIC50 (518A2): 5.17

COc1ccc(C(=O)C(I)C(SCCN)c2ccc(OC)c(OC)c2)c(OC)c1 (centres undefined)
K [2]: 0.28 M⁻¹ s⁻¹

CC(CC=O)SC[C@H](N)C(=O)O (some centres undefined)
K [6]: 8.9 M⁻¹ s⁻¹

CC1=CC[C@]23O[C@@]2(C)CC[C@@H]2[C@H](OC(=O)[C@H]2CSCCO)[C@@H]13
pIC50 (A549): 4.89
pIC50 (MCF7): 4.76
pIC50 (HT-29): 4.73
pIC50 (A-431): 4.89
pIC50 (518A2): 4.77

CC1=CC[C@]23O[C@@]2(C)CC[C@@H]2[C@H](OC(=O)[C@H]2CN2CCNCC2)[C@@H]13
pIC50 (A549): 4.80
pIC50 (MCF7): 4.82
pIC50 (HT-29): 4.82
pIC50 (A-431): 5.36
pIC50 (518A2): 4.82

COc1cc(/C=C/C(=O)CC(=O)/C=C/c2ccc(O)c(OC)c2)ccc1O
K [2]: 0.066 M⁻¹ s⁻¹

O=C(/C=C/c1ccccc1)c1ccccc1
K [2]: 3 M⁻¹ s⁻¹

N#CC(C(N)=O)C(SCCO)c1c[nH]cn1 (centres undefined)
pKd [7]: 1.48

CCOC(=O)C(C(=O)c1ccc(OC)cc1OC)C(SCCN)c1ccc(OC)c(OC)c1 (centres undefined)
K [2]: 0.28 M⁻¹ s⁻¹

C=C(C)C(=O)O[C@H]1CC2=C[C@@H](C[C@@]3(C)O[C@H]3[C@H]3OC(=O)C(CSC[C@H](N)C(=O)O)[C@@H]31)OC2=O (some centres undefined)
K [8]: 1.7 M⁻¹ s⁻¹

CS(=O)(=O)/C=C/CNC(=O)c1ccccc1
K [3]: 3.9 ×10⁻³ /s

N#CC(c1ccncc1)C(SCCO)c1ccccc1 (centres undefined)
t1/2 [1]: 4.6 min

CCCCCC#CC=O
pEC50 (Tetrahymena pyriformis): 4.72
K [4]: 487 M⁻¹ s⁻¹

COC(=O)/C=C/CNC(=O)c1ccc([N+](=O)[O-])cc1
K [3]: 5.9 ×10⁻⁴ /s

C/C=C(\C)C=O [2-methyl-(E)-2-butenal]
pEC50 (Tetrahymena pyriformis): 2.86
K [4]: 0.474 M⁻¹ s⁻¹

CC(C)C[C@H](NC(=O)OCc1ccccc1)C(=O)N[C@@H](Cc1ccccc1)C(=O)N[C@H](/C=C/C(=O)O)CCC(N)=O
CC50 at 48 h [9]: > 100 µM
Ratio (rhinovirus B14 [10]): 30 M⁻¹ s⁻¹
pEC50 (rhinovirus B14 [11]): < 4.00

N[C@@H](CCC(=O)N[C@@H](CSCCC=O)C(=O)NCC(=O)O)C(=O)O
K [6]: 120 M⁻¹ s⁻¹

CCOC(=O)/C(F)=C/[C@H](CCC(N)=O)NC(=O)[C@H](Cc1ccccc1)NC(=O)[C@H](CC(C)C)NC(=O)OCc1ccccc1
CC50 at 48 h [9]: > 320 µM
Ratio (rhinovirus B14 [10]): 60 M⁻¹ s⁻¹
pEC50 (rhinovirus B14 [11]): < 3.49

N#Cc1ccc(C(C#N)C(SCCO)c2ccccc2)cc1 (centres undefined)
t1/2 [1]: 8.9 min

C=CC(=O)Nc1ccc(OC)cc1
K [3]: 3.9 ×10⁻⁵ /s

N[C@@H](CSCCC=O)C(=O)O
K [6]: 220 M⁻¹ s⁻¹

O=C(/C=C/c1ccc(O)cc1)/C=C/c1ccc(O)cc1
DTT second-order rate constant [12]: 0.014 M⁻¹ s⁻¹
Activity [13]: 0.001 M⁻¹ s⁻¹

C=CC(=O)CCC
pEC50 (Tetrahymena pyriformis): 4.66
K [4]: 1170 M⁻¹ s⁻¹

CC1=CC[C@]23O[C@@]2(C)CC[C@@H]2[C@H](OC(=O)[C@H]2CSc2ccccc2C(=O)O)[C@@H]13
pIC50 (A549): 5.00
pIC50 (MCF7): 4.77
pIC50 (HT-29): 4.75
pIC50 (A-431): 4.87
pIC50 (518A2): 4.77

O=C1/C(=C/c2ccccc2)CC/C1=C\c1ccccc1
DTT second-order rate constant [12]: 2.3 M⁻¹ s⁻¹
Activity [13]: 9.3 M⁻¹ s⁻¹

COc1ccc(C(=O)C(C#N)C(SCCN)c2ccc(OC)c(OC)c2)c(OC)c1 (centres undefined)
K [14]: 5700 M⁻¹ s⁻¹

COC(=O)/C=C/CNC(=O)[C@@H](CNC(C)=O)Cc1ccccc1
Ratio (Papain (Carica papaya)): 6.6 M⁻¹ s⁻¹
